Assays:
[1] = Bone density (μCT) and biomechanics testing of femurs; format: in vivo, DBA/1 mice; conditions: 2 weeks; for cortical bone thickness of femurs: μCT
Method: Femur bones were collected and scanned by μCT (Skyscan 1172 uCT) for quantification of trabecular and cortical bone parameters. The thresholds for μCT quantification of trabecular and cortical bone parameters were set at 80–100 and 100–110, respectively. μCT analyses of cortical bone parameters were performed on 100-μCT slices (1 mm total) from the middle shaft of femurs; trabecular parameters were assessed in 100-μCT slices (1 mm total) immediately below the distal growth plate of the femur. Following uCT scans, the femurs were individually tested on a TestResources 570 Force Transducer. Bones were thawed in PBS before being tested, to ensure no brittleness was due to freezing. […] Data points were collected at a frequency of 50 Hz and a deflection rate of 0.005 mm s^–1.

[2] = Body weight (growth inhibition) of DBA/1 mice; format: in vivo; conditions: 0.0625 mg kg^-1 daily, 2 weeks
Method: (§1) Figure 5 Examination of side effects of VSGC12 and FF at the effective dose. (a) Body weight of DBA/1 mice treated with the indicated daily dose of steroids for 2 weeks. Mice body weight was measured at day 0, 7 and 14. (b) Insulin-tolerance test of mice treated with the indicated daily doses of steroids for 7 days. Glucose level was measured at day 7 at various time points before and after insulin injection. Data were plotted as percent of the glucose level of time 0. (c) Plasma insulin levels of mice treated with the indicated daily doses of steroid for 7 days. (d) Spleen size and weight for mice treated with the indicated daily doses of steroid for 2 weeks. (e) Cortical bone thickness of femurs of mice treated with the indicated daily doses of steroid for 2 weeks. (f) Bone stiffness of femurs of mice treated with the indicated daily doses of steroid for 2 weeks. Mouse strain: DBA/1. Each treatment n=5, error bars indicate s.e.m., *P<0.05; **P<0.01; ***P<0.001.

[3] = Spleen size and weight (spleen atrophy); format: in vivo, DBA/1 mice; conditions: 2 weeks
Method: as §1

PR = biological target: T1, PR (Homo sapiens, UniProt P06401); test: PR reporter assay (off-target activity); format: cell-based; conditions: steroid 1 μM; percent of 1 μM progesterone
T1 construct: expressed in transfected cells; host or cells: AD293
T1 sequence (P06401 1-933): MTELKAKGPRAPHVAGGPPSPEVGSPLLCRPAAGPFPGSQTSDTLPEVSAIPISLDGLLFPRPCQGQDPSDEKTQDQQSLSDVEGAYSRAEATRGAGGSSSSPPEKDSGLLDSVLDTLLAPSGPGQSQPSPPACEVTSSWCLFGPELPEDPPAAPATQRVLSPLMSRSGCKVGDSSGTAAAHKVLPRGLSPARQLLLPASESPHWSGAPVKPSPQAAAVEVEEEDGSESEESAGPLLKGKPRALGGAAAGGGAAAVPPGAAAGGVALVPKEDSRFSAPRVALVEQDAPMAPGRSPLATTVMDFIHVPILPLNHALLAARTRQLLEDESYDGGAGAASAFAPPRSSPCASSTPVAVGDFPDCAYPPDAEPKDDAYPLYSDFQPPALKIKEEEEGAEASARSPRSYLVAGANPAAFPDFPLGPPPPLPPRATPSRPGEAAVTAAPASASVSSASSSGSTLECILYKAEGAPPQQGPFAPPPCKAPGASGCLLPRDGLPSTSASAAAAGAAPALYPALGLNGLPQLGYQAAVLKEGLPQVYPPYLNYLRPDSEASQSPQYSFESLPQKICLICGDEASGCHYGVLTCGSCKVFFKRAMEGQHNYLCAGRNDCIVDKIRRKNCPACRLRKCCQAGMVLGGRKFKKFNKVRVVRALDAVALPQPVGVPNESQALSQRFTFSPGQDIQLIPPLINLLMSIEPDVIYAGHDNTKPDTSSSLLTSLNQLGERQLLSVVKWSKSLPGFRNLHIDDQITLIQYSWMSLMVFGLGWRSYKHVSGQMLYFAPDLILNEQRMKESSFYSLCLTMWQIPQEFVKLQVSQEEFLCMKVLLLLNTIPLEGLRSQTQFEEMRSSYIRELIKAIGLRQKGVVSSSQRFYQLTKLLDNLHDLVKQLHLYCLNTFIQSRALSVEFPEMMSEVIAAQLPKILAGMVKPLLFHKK
Method: Similar to previous reports, for induction 100 ng pHHLuc (MMTV-Luc) plasmid, 0.1 ng pRShGR together with 5 ng phRGtkRenilla were transfected by X-tremeGENE 9 (Roche) into AD293 cells per well in 24-well plate. For transrepression, 10 ng AP-1-Luc or 10ng pNF-κB-luc, 100 ng pRShGR and 5 ng phRGtkRenilla were transfected into AD293 cells per well. We used the same transfection protocol for the MR and PR assays, except of the use of 0.1 ng MR or PR plasmid to substitute GR. One day after transfection, for induction, cells were directly treated by steroids for 16 h; for repression, cells were treated with either PMA at 0.6 ng ml^–1 (for AP-1 reporter) or TNFα at 2 ng ml^–1 (for NF-κB reporter), together with various steroids. Cells were collected by addition of 1× Passive Lysis Buffer (Promega, Madison, WI, USA), and luciferase activity was assayed by the Dual-Glo Luciferase system (Promega). Data were plotted as firefly luciferase activity normalized to Renilla luciferase activity in Relative Luciferase Units.

CON(C)C(=O)C1(OC(=O)c2ccco2)C(C)CC2C3CC(F)C4=Cc5c(cnn5-c5ccccc5)CC4(C)C3(F)C(O)CC21C (centres unmarked) [VSGC12]
bone strength (stiffness) of femurs ([1]; 0.0625 mg kg^-1 daily): no longer caused damage to bone strength | cortical bone thickness of femurs ([1]; 0.0625 mg kg^-1 daily): did not cause a significant decrease compared with vehicle treatment | bone strength (stiffness) of femurs ([1]; 0.25 mg kg^-1 daily): no longer caused damage to bone strength | cortical bone thickness of femurs ([1]; 0.25 mg kg^-1 daily): only caused a mild decrease | growth inhibition (body weight) [2]: did not cause a significant growth inhibition | atrophy of the spleen ([3]; 0.0625 mg kg^-1 daily): only a mild change in spleen size | atrophy of the spleen ([3]; 0.25 mg kg^-1 daily): less severe atrophy | PR activity (PR): higher activity than VSG22, but a lower activity than MF, FF and FP

From paper PMC4822341 (Cell Discovery, 2015)
